Measurements as given in article PMC4760375, “A dual phosphorylation switch controls 14-3-3-dependent cell surface expression of TASK-1” (Journal of Cell Science, 2016).
Non-standard residues stand in square brackets, D forms with d. Residues, ends and D or L forms follow the SMILES beside them. No end group written: not given here. pS = N[C@@H](COP(=O)(O)O)C(=O)O

Columns and labels:
14-3-3β = target: T1, 14-3-3β (Homo sapiens, UniProt P31946); experiment: Fluorescence polarization titration with 14-3-3β; assay type: binding; details: versus TASK-3 pS373
T1 construct: Open reading frames encoding human 14-3-3 proteins were inserted into the pMAL2Cx vector at EcoRI and HindIII restriction sites; made in house
Procedure: (§1) TASK-1 or TASK-3 C-terminal fluorescent peptides (10 nM), comprising the last 15 amino acids of the respective C-termini, were titrated with concentrations of the 14-3-3 proteins ranging from 1 nM to 120 µM (Fig. 2), and the equilibrium dissociation constants of 14-3-3 proteins were calculated for TASK-1 phosphorylated at S393 (TASK-1 pS393; the conserved serine residue of the mode III 14-3-3-binding motif) and for TASK-3 phosphorylated at S373 (TASK-3 pS373) (Table 1). They ranged from 7.5±0.14 µM (mean±s.e.m.; 14-3-3β) to 49.4±2 µM (14-3-3τ) for TASK-1, whereas dissociation constants for TASK-3 ranged from 110±10 nM (14-3-3η) to 3.6±0.44 µM (14-3-3σ). The latter value matches the result determined previously by [Anders et al. (2013]) for the TASK-3 C-terminal hexapeptide using isothermal titration calorimetry. […]
(§2) Fig. 2. […] Fluorescence polarization titration of fluorescein-labeled TASK-1 pS393 (black), TASK-3 pS373 (red) and TASK-3 pS373 ΔV374 (blue) peptide (10 nM) with increasing concentrations of the indicated 14-3-3 isoform. Fluorescein was excited at 485 nm, and fluorescence polarization was monitored at 535 nm. […]
(§3) Interactions between 14-3-3 proteins and TASK-1 and TASK-3 C-terminal peptides and variants were investigated using a fluorescence polarization assay ([Moll et al., 2006]; [Muda et al., 2014]). […]

14-3-3ε = target: T2, 14-3-3ε (Homo sapiens, UniProt P62258); experiment: Fluorescence polarization titration with 14-3-3ε; assay type: binding; details: versus TASK-3 pS373
T2 construct: Open reading frames encoding human 14-3-3 proteins were inserted into the pMAL2Cx vector at EcoRI and HindIII restriction sites; made in house
Procedure: as §1, §2, §3

14-3-3σ [1] = target: T3, 14-3-3σ (Homo sapiens, UniProt P31947); experiment: Fluorescence polarization titration with 14-3-3σ; assay type: binding
T3 construct: Open reading frames encoding human 14-3-3 proteins were inserted into the pMAL2Cx vector at EcoRI and HindIII restriction sites; made in house
T3 sequence (P31947 1-248): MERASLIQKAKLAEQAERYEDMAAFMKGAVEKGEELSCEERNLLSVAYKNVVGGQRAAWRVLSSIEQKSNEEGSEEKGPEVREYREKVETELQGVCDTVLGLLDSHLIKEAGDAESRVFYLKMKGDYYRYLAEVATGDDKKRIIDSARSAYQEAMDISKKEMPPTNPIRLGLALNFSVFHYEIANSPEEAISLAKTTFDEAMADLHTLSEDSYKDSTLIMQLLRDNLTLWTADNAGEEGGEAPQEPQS
Procedure: as §1, §2, §3

[2] = tested on: 14-3-3 proteins (all seven isoforms); experiment: Fluorescence polarization titration, statements across the 14-3-3 isoforms; assay type: binding, human; details: fluorescence polarization; 14-3-3β, 14-3-3γ, 14-3-3ζ, 14-3-3η and 14-3-3τ
Procedure: TASK-1 or TASK-3 C-terminal fluorescent peptides (10 nM), comprising the last 15 amino acids of the respective C-termini, were titrated with concentrations of the 14-3-3 proteins ranging from 1 nM to 120 µM (Fig. 2), and the equilibrium dissociation constants of 14-3-3 proteins were calculated for TASK-1 phosphorylated at S393 (TASK-1 pS393; the conserved serine residue of the mode III 14-3-3-binding motif) and for TASK-3 phosphorylated at S373 (TASK-3 pS373) (Table 1). They ranged from 7.5±0.14 µM (mean±s.e.m.; 14-3-3β) to 49.4±2 µM (14-3-3τ) for TASK-1, whereas dissociation constants for TASK-3 ranged from 110±10 nM (14-3-3η) to 3.6±0.44 µM (14-3-3σ). The latter value matches the result determined previously by [Anders et al. (2013]) for the TASK-3 C-terminal hexapeptide using isothermal titration calorimetry. The dissociation constants of the seven mammalian 14-3-3 isoforms for the same TASK C-terminal peptide differed up to sevenfold for TASK-1-derived peptides and up to 30-fold for TASK-3-derived peptides. […] No binding of any 14-3-3 isoform to any TASK C-terminal peptide was observed when the peptides were not phosphorylated.
Fig. 2. […] Fluorescence polarization titration of fluorescein-labeled TASK-1 pS393 (black), TASK-3 pS373 (red) and TASK-3 pS373 ΔV374 (blue) peptide (10 nM) with increasing concentrations of the indicated 14-3-3 isoform. Fluorescein was excited at 485 nm, and fluorescence polarization was monitored at 535 nm. A monophasic fit was used to fit the data (Goodness-of-fit: R^2 from 0.76 to 0.98). No binding was detectable for the unphosphorylated TASK C-terminal peptides. The assay was repeated at least six times for each data point with two batches of independently purified 14-3-3 proteins. Error bars depict s.e.m. (A) 14-3-3β, (B) 14-3-3γ, (C) 14-3-3ε, (D) 14-3-3ζ, (E) 14-3-3η and (F) 14-3-3τ.
[Mant et al. (2011)] report that both serine residues present in the TASK-1 C-terminus can be phosphorylated in vitro by the recombinant catalytic subunit of PKA. […] Next, using fluorescence polarization titration, we determined how phosphorylation of S392 affects the affinity of all seven mammalian 14-3-3 proteins for the TASK-1 C-terminus – either when phosphorylated alone or in combination with phosphorylation of S393 (Table S1). […] Because all Kd values determined for TASK-1 pS392 and the doubly phosphorylated protein (at S392 and S393) were substantially higher than those measured for TASK-1 pS393 (Table S1), we conclude that phosphorylation of S392 cannot substitute for phosphorylated S393 in creating a high-affinity 14-3-3 binding site. On the contrary, our results are consistent with an inhibitory role for phosphorylation of S392 with respect to 14-3-3-mediated binding.
Interactions between 14-3-3 proteins and TASK-1 and TASK-3 C-terminal peptides and variants were investigated using a fluorescence polarization assay ([Moll et al., 2006]; [Muda et al., 2014]). Fluorescein-labeled peptides were purchased from Peps4Life Sciences (Heidelberg, Germany). All measurements were performed in buffer containing 20 mM MOPS, 150 mM NaCl, 0.005% (v/v) CHAPS pH 7.0, using a Fusion™ α-FP microtiter plate reader at room temperature in a 384-well microtiter plater (Optiplate 384, black; Packard, Meriden, CT). 14-3-3 proteins were serially diluted from 100 µM to 1 nM and incubated with 10 nM of fluorescently labeled peptide. The fluorescence polarization signal was detected for 2 s at an excitation wavelength of 485 nm with an emission fluorescence polarization filter wavelength of 535 nm and a photomultiplier voltage of 1100. Data were analyzed with GraphPad Prism 6.0 (GraphPad Software, San Diego, CA) by plotting the obtained fluorescence polarization signal in millipolarization units (mPol) against the logarithm of the 14-3-3 protein concentration. The data were then fitted using a monophasic fit.

14-3-3γ = target: T4, 14-3-3γ (Homo sapiens, UniProt P61981); experiment: Surface plasmon resonance, 14-3-3γ; assay type: binding; details: GST fusion captured by anti-GST antibody on chip, phosphorylated on-chip with PKA catalytic subunit; 150 mM NaCl, 20 mM HEPES, 0.005% Tween 20 pH 7.5, 20°C; equilibrium, sigmoidal dose-response fit; ±s.e.m., at least six repeats; read-out: Kd, SPR, 14-3-3γ
T4 construct: Open reading frames encoding human 14-3-3 proteins were inserted into the pMAL2Cx vector at EcoRI and HindIII restriction sites; made in house
T4 sequence (P61981 1-247): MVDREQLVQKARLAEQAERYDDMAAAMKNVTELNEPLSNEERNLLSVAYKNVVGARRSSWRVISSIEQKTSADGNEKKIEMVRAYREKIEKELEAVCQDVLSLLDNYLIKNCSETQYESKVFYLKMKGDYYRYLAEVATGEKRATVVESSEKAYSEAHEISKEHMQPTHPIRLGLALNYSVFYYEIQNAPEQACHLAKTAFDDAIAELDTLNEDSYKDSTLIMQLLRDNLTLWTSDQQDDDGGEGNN
Text: (§4) In addition to fluorescence polarization, we used surface plasmon resonance (SPR) as a second, complementary approach to quantify the binding parameters for the TASK-3 C-terminus (Fig. 3, Table 1). […] We developed an on-chip phosphorylation protocol (Fig. 3A) where we first captured the GST fusion proteins on the chip surface with an antibody against GST (which was crosslinked at a high density to the metal surface) and then phosphorylated GST–TASK-3 with recombinantly expressed PKA catalytic subunit (also known as PRKACA; [Knape et al., 2015]). […] Consistent with the results of fluorescence polarization titration, no binding of 14-3-3 proteins was observed prior to on-chip phosphorylation, whereas all 14-3-3 isoforms did bind upon phosphorylation of the TASK-3 C-terminus (Fig. 3C) with equilibrium dissociation constants (Fig. 3D, Table 1) between 45±9 nM (14-3-3γ) to 742±29 nM (14-3-3σ). Depending on the 14-3-3 isoform, these values were very similar (14-3-3η and 14-3-3τ) or differed two- (14-3-3β) to fivefold (14-3-3ε, 14-3-3ζ and 14-3-3σ) from the values determined by fluorescence polarization (Fig. 2, Table 1). […]
(§5) Fig. 3. Affinities of the seven mammalian 14-3-3 isoforms for the phosphorylated TASK-3 C-terminus obtained by surface plasmon resonance are consistent with values obtained using fluorescence polarization. […]

14-3-3σ [3] = target: T3, 14-3-3σ; experiment: Surface plasmon resonance, 14-3-3σ; assay type: binding; details: GST fusion captured by anti-GST antibody on chip, phosphorylated on-chip with PKA catalytic subunit; 150 mM NaCl, 20 mM HEPES, 0.005% Tween 20 pH 7.5, 20°C; equilibrium, sigmoidal dose-response fit; ±s.e.m., at least six repeats; read-out: Kd, SPR, 14-3-3σ
Text: as §4, §5

14-3-3 proteins = experiment: Surface plasmon resonance, statements across the 14-3-3 isoforms; assay type: binding, human; details: SPR, prior to on-chip phosphorylation
Text: as §4, §5

T1 sequence (P31946 whole entry): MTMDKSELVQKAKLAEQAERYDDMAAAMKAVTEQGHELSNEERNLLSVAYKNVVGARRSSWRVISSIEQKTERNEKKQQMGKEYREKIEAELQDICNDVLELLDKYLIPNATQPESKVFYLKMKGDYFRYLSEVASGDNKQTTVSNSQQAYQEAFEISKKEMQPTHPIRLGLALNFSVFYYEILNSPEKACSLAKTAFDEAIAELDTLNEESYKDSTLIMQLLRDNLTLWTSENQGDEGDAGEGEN
T2 sequence (P62258 whole entry): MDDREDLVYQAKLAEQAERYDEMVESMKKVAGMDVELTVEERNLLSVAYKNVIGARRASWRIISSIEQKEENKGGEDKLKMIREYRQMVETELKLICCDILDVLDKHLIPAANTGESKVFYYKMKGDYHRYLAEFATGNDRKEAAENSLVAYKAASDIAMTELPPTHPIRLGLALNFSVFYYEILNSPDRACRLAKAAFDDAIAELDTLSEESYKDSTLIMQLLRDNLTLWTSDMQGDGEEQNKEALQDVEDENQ

fold reduction of affinity by the C-terminal deletion, 14-3-3β (14-3-3β) | fold reduction of affinity by the C-terminal deletion, 14-3-3 epsilon (14-3-3ε) [fold] | Kd, fluorescence polarization, 14-3-3σ (14-3-3σ [1]; 10 nM fluorescein-labeled peptide titrated with 14-3-3 (1 nM to 120 µM), 20 mM MOPS, 150 mM NaCl, 0.005% CHAPS pH 7.0, room temperature, monophasic fit, ±s.e.m., n.b. = no binding detectable) | interaction with 14-3-3σ (in words) (14-3-3σ [1]; fluorescence polarization titration) | Kd (14-3-3γ) [nM] | Kd (14-3-3σ [3]) [nM] | binding of 14-3-3 proteins (in words) (14-3-3 proteins) | Molecule | affinity range (in words) [2]
three | 23 | n.b.±n.b. | could no longer be measured |  |  |  | CSCC[C@H](NC(=O)[C@H](CC(C)C)NC(=O)[C@H](CCCNC(=N)N)NC(=O)[C@H](CCC(N)=O)NC(=O)[C@H](Cc1c[nH]cn1)NC(=O)[C@H](CC(=O)O)NC(=O)[C@@H](NC(=O)[C@H](Cc1ccccc1)NC(=O)[C@H](CO)NC(=O)[C@@H](N)CS)[C@@H](C)O)C(=O)N[C@@H](CCCCN)C(=O)N[C@@H](CCCNC(=N)N)C(=O)N[C@@H](CCCNC(=N)N)C(=O)N[C@@H](CCCCN)C(=O)N[C@@H](COP(=O)(O)O)C(=O)O [TASK-3 pS373 ΔV374] (H-CSFTDHQRLMKRRK[pS]-OH; N-terminus assumed) | low micromolar range
 |  |  |  | 45 ± 9 | 742 ± 29 | no binding | GST–TASK-3-CT15: Glutathione S-transferase fused to the TASK-3 C-terminal 15 residues, from E. coli, phosphorylated on-chip with PKA (SFTDHQRLMKRRKSV; also: GST fusion, end not given here, phosphorylated with PKA, site not given here) | 
